Laboratory results: paper PMC8319832, “Fine-Tuning of Alkaline Residues on the Hydrophilic Face Provides a Non-toxic Cationic α-Helical Antimicrobial Peptide Against Antibiotic-Resistant ESKAPE Pathogens” (Frontiers in Microbiology, 2021)
In brackets after ≈: the same amount, converted by molar mass.

How the values were obtained:
S. aureus 1176 [1] = test: Drug sensitivity, Kirby-Bauer test; assay type: cell-based, Staphylococcus aureus; design: key: 'S' represents susceptibility; 'I' represents intermediate efficacy; 'R' represents resistance; settings: clinical isolate
Protocol: (§1) The bacteria used in this study included the standard strains S. aureus ATCC29213 and ATCC25923, E. faecalis ATCC29212, E. coli ATCC25922 and ATCC35218, A. baumannii ATCC19606, K. pneumoniae ATCC700603 and P. aeruginosa ATCC27853, these strains were purchased from the China Center of Type Culture Collection (CCTCC). The antimicrobial activities of the peptides were also determined against clinically isolated strains S. aureus 4188, 9124, 1176, S. epidermidis 9092, 6943, 888, E. faecalis 901, E. faecium 898, E. coli 2678, 2687, K. pneumoniae 9126, P. aeruginosa 9014, 9042, and A. baumannii 906, 13012, 13079, 9068, these strains were acquired from Taihe Hospital, Hubei University of Medicine. The drug sensitivities of the clinical isolates to the antibiotics were determined by the Kirby-Bauer test ([Chinnambedu et al., 2020]).

S. aureus 4188 [2] = test: Drug sensitivity, Kirby-Bauer test; assay type: cell-based, Staphylococcus aureus; design: key: 'S' represents susceptibility; 'I' represents intermediate efficacy; 'R' represents resistance; settings: clinical isolate
Protocol: as §1

S. aureus 9124 [3] = test: Drug sensitivity, Kirby-Bauer test; assay type: cell-based, Staphylococcus aureus; design: key: 'S' represents susceptibility; 'I' represents intermediate efficacy; 'R' represents resistance; settings: clinical isolate, MRSA
Protocol: as §1

E. faecalis 901 [4] = test: Drug sensitivity, Kirby-Bauer test; assay type: cell-based; design: key: 'S' represents susceptibility; 'I' represents intermediate efficacy; 'R' represents resistance; settings: clinical isolate
Protocol: as §1

S. epidermidis 6943 [5] = test: Drug sensitivity, Kirby-Bauer test; assay type: cell-based; design: key: 'S' represents susceptibility; 'I' represents intermediate efficacy; 'R' represents resistance; settings: clinical isolate, MRSE
Protocol: as §1

S. epidermidis 888 [6] = test: Drug sensitivity, Kirby-Bauer test; assay type: cell-based; design: key: 'S' represents susceptibility; 'I' represents intermediate efficacy; 'R' represents resistance; settings: clinical isolate
Protocol: as §1

S. epidermidis 9092 [7] = test: Drug sensitivity, Kirby-Bauer test; assay type: cell-based; design: key: 'S' represents susceptibility; 'I' represents intermediate efficacy; 'R' represents resistance; settings: clinical isolate, MRSE
Protocol: as §1

E. faecium 898 [8] = test: Drug sensitivity, Kirby-Bauer test; assay type: cell-based, Enterococcus faecium; design: key: 'S' represents susceptibility; 'I' represents intermediate efficacy; 'R' represents resistance; settings: clinical isolate
Protocol: as §1

S. aureus 1176 [9] = test: MIC, broth dilution; assay type: cell-based, Staphylococcus aureus; settings: CLSI broth dilution, MHB, 37°C, 20 h, OD630, at least three repeats; clinical isolate
Excerpt: (§2) All experiments were repeated at least three times.

S. aureus 4188 [10] = test: MIC, broth dilution; assay type: cell-based, Staphylococcus aureus; settings: CLSI broth dilution, MHB, 37°C, 20 h, OD630, at least three repeats; clinical isolate, penicillin-resistant
Excerpt: as §2

S. aureus 9124 [11] = test: MIC, broth dilution; assay type: cell-based, Staphylococcus aureus; settings: CLSI broth dilution, MHB, 37°C, 20 h, OD630, at least three repeats; clinical isolate, MRSA
Excerpt: as §2

E. faecalis 901 [12] = test: MIC, broth dilution; assay type: cell-based; settings: CLSI broth dilution, MHB, 37°C, 20 h, OD630, at least three repeats; clinical isolate
Excerpt: as §2

S. epidermidis 6943 [13] = test: MIC, broth dilution; assay type: cell-based; settings: CLSI broth dilution, MHB, 37°C, 20 h, OD630, at least three repeats; clinical isolate, MRSE
Excerpt: as §2

S. epidermidis 888 [14] = test: MIC, broth dilution; assay type: cell-based; settings: CLSI broth dilution, MHB, 37°C, 20 h, OD630, at least three repeats; clinical isolate
Excerpt: as §2

S. epidermidis 9092 [15] = test: MIC, broth dilution; assay type: cell-based; settings: CLSI broth dilution, MHB, 37°C, 20 h, OD630, at least three repeats; clinical isolate, MRSE
Excerpt: as §2

E. faecium 898 [16] = test: MIC, broth dilution; assay type: cell-based, Enterococcus faecium; settings: CLSI broth dilution, MHB, 37°C, 20 h, OD630, at least three repeats; clinical isolate
Excerpt: as §2

E. coli 2678 = test: MIC, broth dilution; assay type: cell-based, Escherichia coli; settings: CLSI broth dilution, MHB, 37°C, 20 h, OD630, at least three repeats; clinical isolate, ESBL
Excerpt: as §2

E. coli 2687 = test: MIC, broth dilution; assay type: cell-based, Escherichia coli; settings: CLSI broth dilution, MHB, 37°C, 20 h, OD630, at least three repeats; clinical isolate, ESBL
Excerpt: as §2

E. coli ATCC35218 = test: MIC, broth dilution; assay type: cell-based, Escherichia coli; settings: CLSI broth dilution, MHB, 37°C, 20 h, OD630, at least three repeats; standard strain
Excerpt: as §2

P. aeruginosa 9014 = test: MIC, broth dilution; assay type: cell-based, Pseudomonas aeruginosa; settings: CLSI broth dilution, MHB, 37°C, 20 h, OD630, at least three repeats; clinical isolate, CRE, MDR
Excerpt: as §2

P. aeruginosa 9042 = test: MIC, broth dilution; assay type: cell-based, Pseudomonas aeruginosa; settings: CLSI broth dilution, MHB, 37°C, 20 h, OD630, at least three repeats; clinical isolate
Excerpt: as §2

A. baumannii ATCC 19606 = test: MIC, broth dilution; assay type: cell-based, Acinetobacter baumannii; settings: CLSI broth dilution, MHB, 37°C, 20 h, OD630, at least three repeats; standard strain
Protocol: as §2
(§3) To study the influence of physiological ions on the antimicrobial activities of the peptides, The MICs of the peptides were also determined against the standard bacterial strains cultured in MHB containing various salts at their physiological concentrations (150 mM NaCl, 4.5 mM KCl, 1 mM MgCl2, 2 mM CaCl2, 6 μM NH4HCO3, and 4 μM FeCl3) ([Ma et al., 2016]).

A. baumannii 13012 = test: MIC, broth dilution; assay type: cell-based, Acinetobacter baumannii; settings: CLSI broth dilution, MHB, 37°C, 20 h, OD630, at least three repeats; clinical isolate, CRE, MDR
Excerpt: as §2

A. baumannii 13079 = test: MIC, broth dilution; assay type: cell-based, Acinetobacter baumannii; settings: CLSI broth dilution, MHB, 37°C, 20 h, OD630, at least three repeats; clinical isolate, CRE, MDR
Excerpt: as §2

A. baumannii 9068 = test: MIC, broth dilution; assay type: cell-based, Acinetobacter baumannii; settings: CLSI broth dilution, MHB, 37°C, 20 h, OD630, at least three repeats; clinical isolate, CRE, MDR
Excerpt: as §2

A. baumannii 906 = test: MIC, broth dilution; assay type: cell-based, Acinetobacter baumannii; settings: CLSI broth dilution, MHB, 37°C, 20 h, OD630, at least three repeats; clinical isolate, CRE, MDR
Excerpt: as §2

[17] = system: K. pneumoniae ATCC 700603; test: MIC, broth dilution; assay type: cell-based, Klebsiella pneumoniae; settings: CLSI broth dilution, MHB, 37°C, 20 h, OD630, at least three repeats; standard strain
Protocol: as §2, §3

K. pneumoniae 9126 = test: MIC, broth dilution; assay type: cell-based, Klebsiella pneumoniae; settings: CLSI broth dilution, MHB, 37°C, 20 h, OD630, at least three repeats; clinical isolate, CRE
Excerpt: as §2

Compound | Drug sensitivity of the isolate to the antibiotic (S. aureus 1176 [1]) | Drug sensitivity of the isolate to the antibiotic (S. aureus 4188 [2]) | Drug sensitivity of the isolate to the antibiotic (S. aureus 9124 [3]) | Drug sensitivity of the isolate to the antibiotic (E. faecalis 901 [4]) | Drug sensitivity of the isolate to the antibiotic (S. epidermidis 6943 [5]) | Drug sensitivity of the isolate to the antibiotic (S. epidermidis 888 [6]) | Drug sensitivity of the isolate to the antibiotic (S. epidermidis 9092 [7]) | Drug sensitivity of the isolate to the antibiotic (E. faecium 898 [8]) | also measured
CC[C@H]1OC(=O)[C@H](C)[C@@H](O[C@H]2C[C@@](C)(OC)[C@@H](O)[C@H](C)O2)[C@H](C)[C@@H](O[C@@H]2O[C@H](C)C[C@H](N(C)C)[C@H]2O)[C@](C)(O)C[C@@H](C)C(=O)[C@H](C)[C@@H](O)[C@]1(C)O [Erythromycin] | R | S | R | R | R | R | R | R | –
CNC(C)C1CCC(N)C(OC2C(N)CC(N)C(OC3OCC(C)(O)C(NC)C3O)C2O)O1 (stereo not shown) [Gentamicin] | S | S | S | R | S | R | R | R | –
CC[C@H](C)[C@H](NC(=O)CN)C(=O)NCC(=O)N[C@@H](C)C(=O)N[C@H](C(=O)N[C@@H](CC(C)C)C(=O)N[C@@H](CCCCN)C(=O)N[C@H](C(=O)N[C@@H](CC(C)C)C(=O)N[C@H](C(=O)N[C@H](C(=O)NCC(=O)N[C@@H](CC(C)C)C(=O)N1CCC[C@H]1C(=O)N[C@@H](C)C(=O)N[C@@H](CC(C)C)C(=O)N[C@H](C(=O)N[C@@H](CO)C(=O)N[C@@H](Cc1c[nH]c2ccccc12)C(=O)N[C@H](C(=O)N[C@@H](CCCCN)C(=O)N[C@@H](CCCNC(=N)N)C(=O)N[C@@H](CCCCN)C(=O)N[C@@H](CCCNC(=N)N)C(=O)N[C@@H](CCC(N)=O)C(=O)N[C@@H](CCC(N)=O)C(N)=O)[C@@H](C)CC)[C@@H](C)CC)[C@@H](C)O)[C@@H](C)O)C(C)C)C(C)C [Melittin] | – | – | – | – | – | – | – | – | MIC (S. aureus 1176 [9]): 5 µg/mL (≈ 1.76 µM); MIC (S. aureus 4188 [10]): 2.5 µg/mL (≈ 0.878 µM); MIC (S. aureus 9124 [11]): 2.5 µg/mL (≈ 0.878 µM); MIC (E. faecalis 901 [12]): 2.5 µg/mL (≈ 0.878 µM); MIC (S. epidermidis 6943 [13]): 2.5 µg/mL (≈ 0.878 µM); MIC (S. epidermidis 888 [14]): 2.5 µg/mL (≈ 0.878 µM); MIC (S. epidermidis 9092 [15]): 2.5 µg/mL (≈ 0.878 µM); MIC (E. faecium 898 [16]): 5 µg/mL (≈ 1.76 µM); MIC (E. coli 2678): 5 µg/mL (≈ 1.76 µM); MIC (E. coli 2687): 2.5 µg/mL (≈ 0.878 µM); MIC (E. coli ATCC35218): 5 µg/mL (≈ 1.76 µM); MIC (P. aeruginosa 9014): 5 µg/mL (≈ 1.76 µM); MIC (P. aeruginosa 9042): 5 µg/mL (≈ 1.76 µM); MIC (A. baumannii ATCC 19606): 2.5 µg/mL (≈ 0.878 µM); MIC (A. baumannii 13012): 2.5 µg/mL (≈ 0.878 µM); MIC (A. baumannii 13079): 2.5 µg/mL (≈ 0.878 µM); MIC (A. baumannii 9068): 2.5 µg/mL (≈ 0.878 µM); MIC (A. baumannii 906): 2.5 µg/mL (≈ 0.878 µM); MIC [17]: 5 µg/mL (≈ 1.76 µM); MIC (K. pneumoniae 9126): 5 µg/mL (≈ 1.76 µM)
CO[C@H]1/C=C/O[C@@]2(C)Oc3c(C)c(O)c4c(O)c(c(/C=N/N5CCN(C)CC5)c(O)c4c3C2=O)NC(=O)/C(C)=C\C=C\[C@H](C)[C@H](O)[C@@H](C)[C@@H](O)[C@@H](C)[C@H](OC(C)=O)[C@@H]1C [Rifampin] | S | S | S | R | S | S | S | R | –
Penicillin | R | R | R | S | R | S | R | R | –
